What was measured:
[1] = system: ebola virus; set-up: species or system C57BL/6J mice; settings: mouse, in vivo
[2] = system: neutrophils and T cells in the peripheral blood; set-up: species or system C57BL/6J mice; settings: mouse, in vivo
[3] = system: influenza; settings: mouse, in vivo; cited from earlier work
[4] = system: cytokines, chemokines in the peripheral blood; set-up: species or system C57BL/6J mice; settings: mouse, in vivo
[5] = system: EBOV; set-up: species or system C57BL/6J mice; settings: mouse, in vivo
[6] = system: free radicals (ROS/RNS); set-up: species or system C57BL/6J mice; settings: mouse, in vivo

Structure (SMILES): CCCCCC/C=C\CCCCCCCCCC(=O)N[C@H]1[C@H](OC[C@H]2O[C@H](OP(=O)(O)O)[C@H](NC(=O)CC(=O)CCCCCCCCCCC)[C@@H](OCCCCCCCCCC)[C@@H]2O)O[C@H](COC)[C@@H](OP(=O)(O)O)[C@@H]1OCC[C@@H](CCCCCCC)OC [eritoran, α-D-Glucopyranose, 3-O-decyl-2-deoxy-6-O-[2-deoxy-3-O-[(3R)-3-methoxydecyl)-6-O-methyl-2-[[(-11Z)-1-oxo-11-octadecenyl)amino]-4-O-phosphono-3-D-glucopyranosyl]-2-[(1,3-dioxotetradecyl)amino]-1-(dihydrogen phosphate)]
- protection against ebola virus challenge [1]: does not protect
- B-cells, NK-cells and monocytes populations [2]: no effect
- absolute count of CD3+, CD3+CD4+ and CD3+CD8+ T cells [2]: further reduced
- expansion of the neutrophil population (absolute counts) [2]: blocked expansion
- granulocytes, absolute count [2]: 2,786 cells/μl
- increase of percentages of CD4+ T cells positive for IL-4 [2]: 3.8 fold
- increase of percentages of CD4 T cells positive for CD69 [2]: 2.8 fold
- levels of IFNγ-secreting CD4+ T cells [2]: dramatically reduced
- levels of IFNγ-secreting CD8+ T cells [2]: dramatically reduced
- levels of IL-17A-secreting CD4+ T cells [2]: dramatically reduced
- percentages of CD11b+Ly6G/Ly6C+ neutrophils in gated granulocytes, placebo versus eritoran [2]: no difference
- percentages of neutrophils expressing activation marker CD64 [2]: significantly increased
- percentages of neutrophils expressing activation marker CD69 [2]: significantly increased
- ratio of CD11b+Ly6G/Ly6C+ neutrophils to CD3+ T-lymphocytes [2]: 11.05
- ratio of CD11b+Ly6G/Ly6C+ neutrophils to total lymphocytes [2]: 2.15
- protection from lethal influenza challenge [3]: protected
- decrease of serum levels of leukemia inhibitory factor (LIF) [4]: 10.3 fold
- increase in the production of KC [4]: 10.0 fold
- increase of levels of G-CSF [4]: 7.0 fold
- increase of levels of M-CSF [4]: 58%
- reduction of serum IL-7 levels [4]: 41%
- serum IL-6 level [4]: reduced
- serum IL-9 level [4]: reduced
- serum IL-10 level [4]: reduced
- serum IL-13 level [4]: reduced
- serum MIG level [4]: significantly decreased
- serum MIP-1α level [4]: significantly decreased
- serum MIP-1β level [4]: significantly decreased
- serum MIP-2 level [4]: significantly decreased
- serum RANTES level [4]: significantly decreased
- serum TNFα level [4]: reduced
- serum IP-10 level ([4]; ip): significantly decreased
- reduction of viremia versus placebo [5]: two-logs
- viremia (quantitative RT-PCR) [5]: 10^5 genome equivalents per mL
- reduction of free radicals (ROS/RNS) [6]: 23%
